Measured values: patent US11352352B2, “Aminopyrimidine compound, preparation method therefor and use thereof” (BEIJING ADAMADLE BIOTECHNOLOGY LIMITED LIABILITY COMPANY, priority 2017, dated 2022)

How the values were obtained:
Experiment in all cases: Cell proliferation inhibition experiment, CellTiter-Glo (CTG) method
Assay type in all cases: cell-based
A-431 = settings: Homo sapiens, A-431, 72 h, A-431 cells, 3 days
Description: (§1) Cell Proliferation Inhibition Experiment
(§2) Compounds were tested in the selected cell lines, and solvent is set as control, nine concentrations were detected with three parallel wells for each concentration.
(§3) 2. Reagents and Materials • 1) fetal bovine serum FBS (GIBCO, Cat #10099-141) • 2) CellTiter-Glo® Luminescent Cell Viability Assay (Promega, Cat #G7572) • 3) 96-well plate with flat clear bottom, black wall plates (Corning®, Cat #3340)
(§4) The first day: Incubation and plant of cells • 1) Cells in logarithmic growth phase were harvested and counted by cell counter. Cell viability was detected by trypan blue exclusion assay to ensure that the viability of each cell line was above 90%. • 2) Cell concentration was adjusted by diluting complete culture medium, and 90 μL cell suspension was added to a 96-well plate (T0 plate and drug plate to be tested) to make the cell density reach the specified concentration. • 3) Cells in 96-well plate were incubated overnight at condition of 37° C., 5% CO2 and 95% humidity.
(§5) The second day: Reading T0 plate • 1) 10 μL culture medium was added to T0 plate. • 2) CTG reagent was melt, while the cell plate was balanced to room temperature for 30 minutes. • 3) The same volume of CTG solution was added to each well. • 4) The cell plate was vibrated for 2 minutes on an orbital shaker to lyze the cells. • 5) The cell plate was placed at room temperature for 10 minutes to stabilize the cold light signal. • 6) The cold light value was read with EnVision.
Drug Addition • 1) Drug dilution. The compounds to be tested were dissolved and packaged, then a gradient elution was performed to obtain a solution diluted 10 times. • 2) Drug addition. […] drug solution was added into each well of the 96-well plate, which was inoculated cells, three parallel wells were set for each cell concentration. The highest concentration of the compounds to be tested on A-431 was 30 μM, nine concentrations was set with 3 times dilution; while the highest concentration on NCI-H1975 and PC-9 was 1.111 μM, 9 concentrations was set with 3 times dilution. • 3) Culture. Cells in 96-well plates in which drugs have been added were cultured at condition of 37° C., 5% CO2 and 95% humidity for 3 days, and then CTG assay was performed respectively.
(§6) The third day: reading plate at the terminal • 1) CTG reagent was melt, while the cell plate was balanced to room temperature for 30 minutes. • 2) The same volume of CTG solution was added to each well. • 3) The cell plate was vibrated for 2 minutes on an orbital shaker to lyze the cells. • 4) The cell plate was placed at room temperature for 10 minutes to stabilize the cold light signal. • 5) The cold light value was read with EnVision
(§7) Data were analyzed using GraphPad Prism 5.0 software, and non-linear S curve regression was used for fitting the data to give a dose-effect curve, IC50 value was calculated accordingly. Cell Survival Rate (%)=(Lumdrugs−Lumcontrol)/(Lumcell−Lumcontrol)×100%.

PC-9 = settings: Homo sapiens, PC-9, 72 h, PC-9 cells, 3 days
Description: as §1, §2, §3, §4, §5
(§8) Drug Addition • 1) Drug dilution. The compounds to be tested were dissolved and packaged, then a gradient elution was performed to obtain a solution diluted 10 times. • 2) Drug addition. […] drug solution was added into each well of the 96-well plate, which was inoculated cells, three parallel wells were set for each cell concentration.
as §6, §7

NCI-H1975 = settings: for IC50: Homo sapiens, NCI-H1975, 72 h, NCI-H1975 cells, CTG, 3 days; for A-431/NCI-H1975 Selectivity: ratio of A-431 IC50 to NCI-H1975 IC50
Description: as §1, §2, §3, §4, §5, §8, §6, §7

SMILES	IC50 (A-431)	IC50 (PC-9)	IC50 (NCI-H1975)	A-431/NCI-H1975 Selectivity (NCI-H1975)
C=CC(=O)Nc1cc(Nc2cc(-c3ccc4c(cnn4C)c3)ncn2)c(OCC)cc1NCCN(C)C [compound 123]	698 nM	15.5 nM	13.7 nM	51.0
C=CC(=O)Nc1cc(Nc2cc(-c3ccc4cnn(C)c4c3)ncn2)c(OC(F)F)cc1N1CCC(N2C[C@@H](C)O[C@@H](C)C2)CC1 [compound 162]	763 nM	18.9 nM	16.8 nM	45.4
C=CC(=O)Nc1cc(Nc2nccc(-c3ccc4cnn(C(C)C)c4c3)n2)c(OC)cc1N(C)CCN(C)C [compound 17]	1250 nM	16.9 nM	22.2 nM	56.2
C=CC(=O)Nc1cc(Nc2cc(-c3ccc4cnn(C)c4c3)ncn2)c(OC)cc1N1CCN(C2CCN(C)CC2)CC1 [compound 184]	1060 nM	32.6 nM	49.5 nM	21.3
C=CC(=O)Nc1cc(Nc2cc(-c3ccc4c(c3)ncn4C)ncn2)c(OC)cc1OCCN1CCN(C)CC1 [compound 132]	2040 nM	118 nM	42.3 nM	48.3
C=CC(=O)Nc1cc(Nc2cc(-c3ccc4c(cnn4C)c3)ncn2)c(OC)cc1N(C)C1CCN(C)CC1 [compound 35]	1590 nM	16.4 nM	13.2 nM	
C=CC(=O)Nc1cc(Nc2cc(-c3ccc4c(cnn4CC)c3)ncn2)c(OC)cc1N(C)C1CCN(C)C1 (centres unmarked) [compound 112]	654 nM	9.7 nM	9 nM	72.7
C=CC(=O)Nc1cc(Nc2cc(-c3ccc4c(cnn4C)c3)ncn2)c(OC)cc1N(C)CCN1CCN(C2CC2)CC1 [compound 127]	2300 nM	163 nM	45.1 nM	51.0
C=CC(=O)Nc1cc(Nc2nccc(-c3ccc4c(cnn4C)c3)n2)c(OC)cc1N(C)C1CCN(C)CC1 [compound 231]	1730 nM	76.5 nM	96.8 nM	17.8
C=CC(=O)Nc1cc(Nc2cc(-c3ccc4c(C)nn(C)c4c3)ncn2)c(OC)cc1N1CC(C)N(C)C(C)C1 (centres unmarked) [compound 56]	1230 nM	56.7 nM	113 nM	10.9
C=CC(=O)Nc1cc(Nc2cc(-c3ccc4c(cnn4C)c3)ncn2)c(OC)cc1N(C)CCN1CCCC1 [compound 36]	1010 nM	22 nM	31.4 nM	32.3
C=CC(=O)Nc1cc(Nc2cc(-c3ccc4cnn(C)c4c3)ncn2)c(OC)cc1N(C)C1CCN(C)CC1 [compound 54]	1310 nM	88.2 nM	111 nM	11.8
C=CC(=O)Nc1cc(Nc2cc(-c3ccc4ncsc4c3)ncn2)c(OC)cc1N(C)CCN1CCN(C)CC1 [compound 124]	1470 nM	32.3 nM	35.2 nM	41.7
C=CC(=O)Nc1cc(Nc2cc(-c3ccc4nc(C)sc4c3)ncn2)c(OC)cc1N(C)CCN(C)C [compound 65]	765 nM	12 nM	10.9 nM	70.2
C=CC(=O)Nc1cc(Nc2nccc(-c3ccc4c(cnn4C)c3)n2)c(OC(F)F)cc1N1CCN(CCN(C)C)CC1 [compound 114]	1480 nM	32.7 nM	31.5 nM	46.9
C=CC(=O)Nc1cc(Nc2cc(-c3ccc4c(cnn4C)c3)ncn2)c(OC(F)F)cc1N1CCC(N2C[C@@H](C)N(C)[C@@H](C)C2)CC1 [compound 146]	800 nM	14.9 nM	10.2 nM	78.5
C=CC(=O)Nc1cc(Nc2cc(-c3ccc4cnn(C)c4c3)ncn2)c(OC)cc1N1CCC(C2CCN(C)CC2)CC1 [compound 53]	1250 nM	67.9 nM	151 nM	8.3
C=CC(=O)Nc1cc(Nc2cc(-c3ccc4cnn(C)c4c3)ncn2)c(OC)cc1N1CCC(N2CCN(C)CC2)CC1 [compound 52]	615 nM	39 nM	41.7 nM	14.7
C=CC(=O)Nc1cc(Nc2cc(-c3ccc4c(cnn4C)c3)ncn2)c(OCC)cc1N(C)CCN(C)C(C)C [compound 139]	1160 nM	57.9 nM	43.1 nM	26.8
C=CC(=O)Nc1cc(Nc2cc(-c3ccc4c(cnn4C)c3)ncn2)c(OC(F)F)cc1N1CCC(N2CCCC2)CC1 [compound 150]	543 nM	19.3 nM	5.3 nM	102.5
C=CC(=O)Nc1cc(Nc2cc(-c3ccc4c(cnn4C(C)C)c3)ncn2)c(OC)cc1N(C)CCN(C)C [compound 15]	1290 nM	12.7 nM	21.6 nM	59.7

Second part, led by results:

IC50 (A-431)	IC50 (PC-9)	IC50 (NCI-H1975)	SMILES	A-431/NCI-H1975 Selectivity (NCI-H1975)
943 nM	61 nM	8.6 nM	C=CC(=O)Nc1cc(Nc2nccc(-c3ccc4c(cnn4C)c3)n2)c(OC(F)F)cc1NCCN(C)C [compound 249]	109.7
938 nM	24.8 nM	10.1 nM	C=CC(=O)Nc1cc(Nc2cc(-c3ccc4c(cnn4C)c3)ncn2)c(OC(F)F)cc1N1C[C@@H](C)N[C@@H](C)C1 [compound 266]	92.9
2440 nM	54.9 nM	71.4 nM	C=CC(=O)Nc1cc(Nc2nccc(-c3ccc4c(cnn4C)c3)n2)c(OC)cc1N1CCC(N2C[C@@H](C)N(C)[C@@H](C)C2)CC1 [compound 233]	34.1
2080 nM	38.7 nM	60 nM	C=CC(=O)Nc1cc(Nc2nccc(-c3ccc4c(cnn4C)c3)n2)c(OC)cc1N1CCC(N2C[C@@H](C)O[C@@H](C)C2)CC1 [compound 236]	34.7
1830 nM	9.2 nM	21.2 nM	C=CC(=O)Nc1cc(Nc2cc(-c3ccc4c(cnn4C)c3)ncn2)c(OC)cc1N1CCN(C2COC2)CC1 [compound 218]	86.6
1370 nM	32.7 nM	22.7 nM	C=CC(=O)Nc1cc(Nc2cc(-c3ccc4c(cnn4C)c3)ncn2)c(CC)cc1N1CCN(C)CC1 [compound 282]	60.4
3300 nM	43.2 nM	136 nM	C=CC(=O)Nc1cc(Nc2cc(-c3ccc4cnn(C)c4c3)ncn2)c(OC(F)F)cc1N1CCN(CCO)CC1 [compound 275]	24.3
992 nM	19.2 nM	9.6 nM	C=CC(=O)Nc1cc(Nc2cc(-c3ccc4c(cnn4C)c3)ncn2)c(OC(F)F)cc1N(C)CCN(C)C(C)C [compound 256]	103.3
2730 nM	54.3 nM	89.5 nM	C=CC(=O)Nc1cc(Nc2cc(-c3ccc4c(cnn4C)c3)ncn2)c(OC2CC2)cc1N(C)CCN(C)C [compound 291]	30.6
1040 nM	24.1 nM	12.2 nM	C=CC(=O)Nc1cc(Nc2cc(-c3ccc4c(cnn4C)c3)ncn2)c(OCC)cc1N(C)CCN(C)C [compound 289]	85.1
2060 nM	55.6 nM	74.9 nM	C=CC(=O)Nc1cc(Nc2cc(-c3ccc4cnn(C)c4c3)ncn2)c(OC)cc1N1CCC(N2CCCC2=O)CC1 [compound 213]	27.4
798 nM	12.7 nM	10.7 nM	C=CC(=O)Nc1cc(Nc2cc(-c3ccc4c(cnn4C)c3)ncn2)c(OC)cc1N1CCC(N2CCC(OC)C2)CC1 (centres unmarked) [compound 202]	74.6
